# Laboratory results taken from patent publication US20250338846A1, “COMPOSITIONS HAVING PESTICIDAL UTILITY AND PROCESSES RELATED THERETO” (CORTEVA AGRISCIENCE, LLC, priority 2022, published 2025).
# How the values were obtained:
# [1] = system: Diamondback Moth (Plutella xylostella, PLUTMA); experiment: Bioassay 6: Diamondback Moth, artificial lepidopteran diet, live larvae after 5 days; assay type: in vivo; conditions: DBM; F1 alone 0.4 % w/v
# Experimental: where X=No. of live nymphs on solvent check and Y=No. of live nymphs on treated bean segments. In Table B5 the “Expected % Control” was calculated using the method described in Colby S. R., Weeds, 1967, 15, 20-22. Bioassay 6: Beet Armyworm (Spodoptera exigua, LAPHEG) (BAW), and Diamondback Moth (Plutella xylostella, PLUTMA) (DBM).
# Stock solutions were prepared with Formula One as well as for each of the active ingredients individually. Test solutions were prepared from the stock solutions. Test solutions were prepared containing Formula One, the individual active ingredients, and mixtures of Formula One with each of the active ingredients. The test solution for Formula One was prepared by adding 500 μL of the stock solution to a 25 mL glass vial, then adding 500 μL of a 9:1 mixture of acetone: water. The individual active ingredients were prepared by adding 500 μL of stock solution to a 25 mL glass vial, then adding 500 μL of a 9:1 mixture of acetone: water. The test solutions containing mixtures of Formula One and the individual active ingredients were prepared by adding 500 μL of the active ingredient stock solution to a 25 mL glass vial, followed by 500 μL of the Formula One stock solution, creating a test solution containing 4000 ppm Formula One and 0.4% (w/v) of the active ingredient. Each test solution was serially diluted to create desired doses of test solutions (0.4% (w/v), 0.04% (w/v), 0.004% (w/v), 0.0004% (w/v), 0.00004% (w/v), and 0.000004% (w/v)). In test solutions containing mixtures of Formula One and the active ingredients, the active ingredients were diluted as described above, but the Concentration of Formula One was held constant (0.4% (w/v)). The highest dose test solution (0.4% (w/v)) was discarded, leaving 5 test solution concentrations used in the test.
# The test solutions were tested against BAW and DBM using the following procedure: An artificial lepidopteran diet (Multispecies Lepidopteran Diet, Southland Products) was distributed in 128-cell bioassay trays (Frontier Agricultural Sciences™). 50 μL of test solution was pipetted into a cell in the bioassay tray. (The test solution doses of 0.04% (w/v), 0.004% (w/v), 0.0004% (w/v), 0.00004% (w/v), and 0.000004% (w/v) translated to concentrations of 5, 0.5, 0.05, 0.005, and 0.0005 ug/cm^2 on the diet, respectively.) A reference treatment (solvent check) was treated with the diluent only. […] After 5 days, the number of live larvae were recorded from each cell and percent control was measured using Abbott's correction formula (W. S. Abbott, J. Econ. Entomol. 18 (1925), pp. 265-267) as follows:
# where X=No. of live larvae on solvent check and Y=No. of live larvae on treated diet. In Table B6 the “Expected % Control” was calculated using the method described in Colby S. R., Weeds, 1967, 15, 20-22. […]
# [2] = system: Diamondback Moth (Plutella xylostella, PLUTMA); experiment: Bioassay 9: Diamondback Moth, leaves of track-sprayed cabbage plants, mortality and feeding damage scored; assay type: in vivo
smiles,measurement,setting,value
"CCN(C(=O)CCS(C)(=O)=O)c1sc(-c2cccnc2)nc1Cl [Formula F1, N-(4-chloro-2-(pyridin-3-yl)thiazol-5-yl)-N-ethyl-3-(methylsulfonyl)propanamide]",Average % Control F1,[1],0%
same,Average % Control F1,[2]; F1 alone 10 (10^-5) Wt %,0.00%
same,Average % Control F1,"[2]; Feeding damage control, F1 alone 20 (10^-5) Wt %",17.64%
